{"source": "patent US20140170159A9", "about": "“Conditionally active anti-epidermal growth factor receptor antibodies and methods of use thereof” (priority 2012, published 2014)", "key": {"[1]": {"tested_on": "A431 xenograft tumors", "assay": "A431 xenograft tumor growth, Cetuximab vs. HC-Y104D and cisplatin", "format": "in vivo, male nude mice", "conditions": "5 mg/kg cisplatin IV twice per week, day 14", "procedure": "Subcutaneous A431 xenograft tumors were established in male nude mice as described above. […] Specifically, the test article(s) were administered on days 0, 4, 7 and 11. Tumor volume (mm^3) was determined on days—1, 4, 7, 11 and 14 as described previously."}, "[2]": {"tested_on": "A431 xenograft tumors", "assay": "A431 xenograft tumor growth, Cetuximab and cisplatin combination", "format": "in vivo, male nude mice", "conditions": "day 14", "procedure": "Specifically, the test article(s) were administered on days 0, 4, 7, 11, and 14.\nTumor growth, measured as tumor volume (mm^3), was determined on days—1, 4, 7, 11 and 14 using digital calipers and calculation as described in Example 8. Tumor growth inhibition (TGI) for the treatment groups was calculated using the formula: % TGI=[1−(TB−TA)/(CB−CA)]×100; where TB is the average tumor volume (mm^3) in the treatment group at day 14, TA is the average tumor volume (mm^3) in the treatment group the day before the first treatment (day—1), CB is the average tumor volume in the vehicle only control group at day 14, and CA is the average tumor volume in the vehicle only control group the day before the first treatment (day—1) (see, e.g., Teicher B A and Andrews P A: Anticancer Drug Development, Guide: Preclinical Screening, Clinical Trials and Approval, 2nd edition."}}, "note": "Marks after values point to notes of the source that are not given here.", "data": [{"smiles": "N.N.[Cl][Pt][Cl]", "note": "[cisplatin]", "values": [{"measurement": "reduction in tumor growth", "setting": "[1]", "value": "about 45%"}, {"measurement": "tumor growth inhibition (TGI)", "setting": "[2]; 5 mg/kg cisplatin alone", "value": 34.2, "unit": "%"}, {"measurement": "% Tumor Growth Inhibition", "setting": "[2]; Cisplatin 5 mg/kg ([…]) IV twice per week", "value": "34.2* %"}, {"measurement": "% Tumor Growth Inhibition", "setting": "[2]; Cisplatin […] (0.04 mg/mouse) IV twice per week", "value": 16.7, "unit": "%"}]}]}
